Experimental data: paper PMC10355216, “The C-terminal tail of CSNAP attenuates the CSN complex” (Life Science Alliance, 2023)
Where no end group is shown, it is not given here.

Assays:
CSN complex = test: Reciprocal co-immunoprecipitation (anti-CSN3, anti-GFP) of Cer fusions in HAP1 cells; type: cell-based; conditions: peptides fused to Cer expressed in HAP1 cells; anti-CSN3 and anti-GFP pull-downs
Excerpt: To clarify the ability of C-CSNAP peptides to displace CSNAP in cells, we stably expressed four versions of CSNAP, the 16AA and 20AA C-CSNAP, D42E and scrambled peptides fused to the fluorescent protein Cer in HAP1 cells. As control, we used HAP1 cells expressing Cer only. We then performed reciprocal co-immunoprecipitation analyses, using antibodies against CSN3 and GFP recognizing Cer (Figs 6A and S5). […] This is reflected by the higher intensity of the GFP band upon CSN3 pull down, and by the more intense CSN3 band following GFP co-immunoprecipitation.
(§1) Figure 6. Expression of C-CSNAP reduces cellular proliferation rate. (A) Immunoprecipitation analysis using anti-GFP antibody recognizing cerulean (Cer) from lysates of cells expressing the Cer-fused 16AA, 20AA, D42E, and scrambled C-CSNAP in HAP1 WT cells. The COP9 signalosome complex was pulled down from all cells, except when Cer is expressed alone or fused to the scrambled C-CSNAP. Similarly, reciprocal immunoprecipitation by an anti-CSN3 antibody pulled down only the Cer-fused 16AA, 20AA, or D42E C-CSNAP. (B) Stable overexpression of 16AA and 20AA C-CSNAP–Cer in HAP1 WT cells reduces their rate of proliferation. […] One-way ANOVA (P < 0.05) with Dunnett’s multiple comparisons test was used to compare means *P < 0.05, **P < 0.01.
Figure S5. […]

HAP1 WT cells = test: Resazurin-based cell proliferation assay; conditions: HAP1 WT cells stably expressing Cer fusions, 24 h after plating, five independent experiments
Excerpt: as §1, with “0.01. […]” for “0.01.”
HAP1 WT cells stably expressing Cer, 16AA, and 20AA C-CSNAP–Cer were trypsinized and counted. […] Fluorescence intensities at 560/600 nm (ex/em) were measured, and average intensities of four replicates in each plate were calculated, normalized against WT after background subtraction, and normalized values from five independent experiments were compared on a bar graph with SEM. Significance was calculated using repeated measurment one-way ANOVA (P < 0.05) with Dunnett’s multiple comparisons test was used to compare means to Cer as control *P < 0.05, **P < 0.01.

recombinant CSN complex = test: Peptide array screen of C-CSNAP peptides with recombinant CSN (rCSN^WT); type: binding; conditions: for Average fold change, intensities as fold of C-CSNAP (A1): rCSN^WT on INTAVIS Celluspots array, anti-CSN3 and HRP secondary antibody, average of six replicates (three independent experiments in duplicates); for Average fold change: peptide array with rCSN, average of 3 experiments, left and right (n = 6), fold of C-CSNAP (A1);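 on all read-outs here: densitometric signal of CSN bound to each synthesized peptide spot, with an antibody-only array lacking CSN run to exclude non-specific binding, higher values meaning stronger binding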
Procedure: To generate an optimized C-CSNAP peptide, we used the peptide array methodology. The array was designed to screen for the optimal peptide length, sequence, and stability (Fig 3A). A recombinant CSN complex was expressed, purified, and screened for binding to the peptide array by using an anti-CSN3 antibody. To rule out non-specific binding of the probing antibody, a control experiment was carried out without the addition of the CSN complex (Fig 3A right panel).
C-CSNAP peptide and its derivatives were synthesized on a microarray. The array was blocked and incubated with or without the COP9 signalosome complex (CSN) and probed using an anti-CSN3 antibody and HRP-conjugated secondary antibody. To assess non-specific binding of the antibodies to the array, anti-CSN3 and anti-GAR–HRP were used without the addition of the CSN. Signal intensity of each spot was measured and normalized to the intensity of the spot of C-CSNAP (A1). Measured values for each spot were averaged from six arrays and plotted with SEM. […] (A) A representative image of the peptide array (left) and the background (right). (B) Elongation of the C-terminal 16 amino acids (green) with one residue at a time based on the full-length sequence. […] (F) Single D-amino acid substitution at various positions.
(§2) Intensity values are normalized to the intensity of the 16AA C-CSNAP peptide (A1) on each array from three independent experiments in duplicates, and averages from the six replicates are calculated with SEM.
(§3) Optimization of C-CSNAP sequence for enhanced binding to recombinant CSN^ΔCSNAP was screened by printing the modified sequences of CSNAP or C-CSNAP (Phe to Trp, Asp to Glu, Ala screen, D-amino acid screen, N-α-methylation, and Aib incorporation on INTAVIS Celluspots array [2 × 384spots]). The array was blocked with 5% skim milk in TBS-0.5% Tween 20 (TBS-T) for 4 h at room temperature, washed three times in TBS-T, and then incubated with 0.5 μM CSN^ΔCSNAP in 5% milk–TBS-T. Bound CSN^ΔCSNAP was visualized by incubating with anti-CSN3 (ab79698) antibody (1:10,000, overnight) and goat-anti-rabbit-HRP secondary antibody (1:10,000, 1 h).

CSN^ΔCSNAP complex = test: Peptide array screen of C-CSNAP peptides with rCSN^ΔCSNAP; type: binding; conditions: average of 5 experiments;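 further: Array-printed peptides incubated with 0.5 µM CSN^ΔCSNAP, bound complex detected by anti-CSN3 antibody plus HRP-linked secondary, spot intensity expressed relative to the parent reference peptide spot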
Procedure: Peptide array screen of modified C-CSNAP peptides. C-CSNAP peptide and its derivatives were printed on a microarray. The array was blocked and incubated with or without the CSN∆CSNAP complex and probed using an anti-CSN3 antibody and HRP-conjugated secondary antibody. To assess non-specific binding of the antibodies to the array, anti-CSN3 and anti-GAR-HRP were used without the addition of the COP9 signalosome complex (CSN). Signal intensity of each spot was measured and normalized to the intensity of the spot of C-CSNAP (A1). Measured values for each spot were averaged from six arrays and plotted with standard errors SEM.
as §2, §3

[1] = peptide array with rCSN^ΔCSNAP, left and right (n = 10), fold of C-CSNAP (A1)
[2] = peptide array, rCSN^ΔCSNAP, left and right spots

| Substance | Average fold change, intensities as fold of C-CSNAP (A1) (recombinant CSN complex) | Average fold change (CSN^ΔCSNAP complex; [1]) [fold] | Average fold change (recombinant CSN complex) [fold] | Average fold change (CSN^ΔCSNAP complex; [2]) | other results |
| --- | --- | --- | --- | --- | --- |
| 20AA C-CSNAP–Cer: 20AA C-CSNAP fused to the fluorescent protein cerulean (Cer), expressed in HAP1 cells (AVHADFFNDFEDLFDDDDIQ; also: fused to Cerulean, end not given here) | – | – | – | – | integration into the CSN complex, based on band intensities, in words (CSN complex): highest ability to integrate into CSN; cell proliferation compared with cells expressing only Cer, in words (HAP1 WT cells): significant reductions in cell proliferation |
| LMDLAANEKAVHADFFNDFEDLFDDDDIQ [Position A14, CSNAP residues 29-57] | 0.9262 fold of C-CSNAP (A1) | 1.0726 | – | – | – |
| EFFNDFEELFEEEEIQ [D42,49,52,53,54,55E] | – | – | 0.6132 | 0.9207 fold of C-CSNAP (A1) | – |
| DFFNEFEELFEDEEIQ [D46,49,52,54,55E] | – | – | 0.5968 | 1.2301 fold of C-CSNAP (A1) | – |
| DFFNDFEELFDDEDIQ [Position D23, C-CSNAP, Asp to Glu substitution D49,54E] | 0.5825 fold of C-CSNAP (A1) | – | – | 1.0923 fold of C-CSNAP (A1) | – |
| DFFNDFEELFEDDEIQ [Position E19, C-CSNAP, Asp to Glu substitution D49,52,55E] | 0.6448 fold of C-CSNAP (A1) | – | – | 1.0909 fold of C-CSNAP (A1) | – |
| DFFNDFEELFEDDDIQ [Position D21, C-CSNAP, Asp to Glu substitution D49,52E] | 0.6335 fold of C-CSNAP (A1) | – | – | 1.3626 fold of C-CSNAP (A1) | – |
| DFFNDFEDLFEDEDIQ [E 2, C-CSNAP, Asp to Glu substitution D52,54E] | 0.8694 fold of C-CSNAP (A1) | – | – | 0.9955 fold of C-CSNAP (A1) | – |
| EGAGPYVDLDEAGGSTGLLMDLAANEKAVHADFFNDFEDLFDDDDIQ [B 8, CSNAP residues 11-57] | 0.8775 fold of C-CSNAP (A1) | 0.9764 | – | – | – |
| EFFNEFEELFDDDDIQ [E 4, C-CSNAP, Asp to Glu substitution D42,46,49E] | 0.8374 fold of C-CSNAP (A1) | – | – | 0.8106 fold of C-CSNAP (A1) | – |
| EFFNDFEDLFEEEDIQ [D42,52,53,54E] | – | – | 0.7432 | 1.1111 fold of C-CSNAP (A1) | – |
| ADFFNDFEDLFDDDDIQ [A 2, CSNAP residues 41-57] | 0.9705 fold of C-CSNAP (A1) | 0.9058 | – | – | – |
| DFFNDFEELFEEDEIQ [D49,52,53,55E] | – | – | 0.6996 | 1.1749 fold of C-CSNAP (A1) | – |
| VHADFFNDFEDLFDDDDIQ [A 4, CSNAP residues 39-57] | 1.1190 fold of C-CSNAP (A1) | 0.9552 | – | – | – |
| DFFNDFEDLFDEDDIQ [D 7, C-CSNAP, Asp to Glu substitution D53E] | 0.9008 fold of C-CSNAP (A1) | – | – | 1.1500 fold of C-CSNAP (A1) | – |
| EFFNDFEELFEDEDIQ [D42,49,52,54E] | – | – | 0.7100 | 1.0950 fold of C-CSNAP (A1) | – |
| GPYVDLDEAGGSTGLLMDLAANEKAVHADFFNDFEDLFDDDDIQ [B 5, CSNAP residues 14-57] | 1.1075 fold of C-CSNAP (A1) | 0.9816 | – | – | – |
| EFFNEFEELFEDDEIQ [D42,46,49,52,55E] | – | – | 0.5210 | 0.9893 fold of C-CSNAP (A1) | – |
| DLDEAGGSTGLLMDLAANEKAVHADFFNDFEDLFDDDDIQ [B 1, CSNAP residues 18-57] | 1.1704 fold of C-CSNAP (A1) | 0.9126 | – | – | – |
| GAGPYVDLDEAGGSTGLLMDLAANEKAVHADFFNDFEDLFDDDDIQ [B 7, CSNAP residues 12-57] | 1.1696 fold of C-CSNAP (A1) | 1.0720 | – | – | – |
| DFFNDFEDLFEEDEIQ [D52,53,55E] | – | – | 0.6917 | 1.3267 fold of C-CSNAP (A1) | – |
| EMFPEGAGPYVDLDEAGGSTGLLMDLAANEKAVHADFFNDFEDLFDDDDIQ [Position B12, CSNAP residues 7-57] | 0.8904 fold of C-CSNAP (A1) | 1.1057 | – | – | – |
| EFFNDFEELFDEDDIQ [Position E10, C-CSNAP, Asp to Glu substitution D42,49,53E] | 0.6945 fold of C-CSNAP (A1) | – | – | 1.1579 fold of C-CSNAP (A1) | – |
| EFFNEFEELFDDDEIQ [D42,46,49,55E] | – | – | 0.5938 | 0.8257 fold of C-CSNAP (A1) | – |
